Entries after “also recorded” stand apart in the source; their conditions may differ. Like-named read-outs stand apart in the source and are kept apart here.
Columns and labels:
[1] = target: T. vaginalis Tv20S proteasome β5 subunit (Trichomonas vaginalis, UniProt A2DD57+A2F716); assay: biochemical; assay type: biochemical
Experimental: (§1) The T. vaginalis proteasome was expressed in recombinant form as previously described ([27]). Briefly, Spodoptera frugiperda cells were co-infected with three baculovirus vectors carrying the T. vaginalis genes for the 7 α-subunits, 7 β-subunits, and the Ump-1 chaperone, respectively. The resulting proteasome complex was purified from cell lysates via streptavidin column and size exclusion chromatography and stored at −80°C. Purified human c20S proteasome and recombinant human proteasome activator PA28α ([21]) were obtained from Bio-Techne and stored at −80°C. Dilutions of the test agents were transferred to 384-well plates (Greiner Bio-One) in triplicate wells using an Echo 650 Acoustic Liquid Handler (Beckman Coulter). Six replicate plates were prepared for each compound for testing with three T. vaginalis-optimized substrates and three human-optimized substrates. After dispensing, plates were sealed and stored at −20°C. The following fluorescent substrates and final substrate concentrations were used to assay subunit activities of the T. vaginalis proteasome (Tv20S) ([28]) or the human constitutive proteasome (c20S) ([19], [52]): Ac-RYFD-amc (Genscript) at 100 µM for Tv20S β1 subunit, Ac-FRSR-amc (Genscript) at 20 µM for Tv20S β2 subunit, Ac-GWYL-amc (Genscript) at 20 µM for Tv20S β5 subunit, z-LLE-amc (R&D Systems) at 80 µM for c20S β1 subunit, z-VLR-amc (AdipoGen Life Sciences) at 30 µM for c20S β2 subunit, and suc-LLVY-amc (R&D Systems) at 65 µM for c20S β5 subunit. Substrates and proteasomes were diluted in an assay buffer consisting of HEPES pH 7.5 and 1 mM DTT. For the human proteasome assays, 2 nM c20S was incubated at room temperature with 200 nM PA28α for 1 h to activate the complex prior to addition to the 384-well plates containing the substrate-inhibitor mixtures. […] Both proteasomes were added to the wells at a 1 nM final assay concentration. Fluorescence was measured over 4 h at 360 nm excitation and 460 nm emission on a Biotek Synergy HTX plate reader.

[2] = target: T1, Human c20S proteasome β1 subunit (Homo sapiens, UniProt P28072+Q99436); assay: In vitro proteasome assay, z-LLE-amc substrate; assay type: biochemical; conditions: purified human c20S with PA28α, mean ± SD; for IC50: read-out: Human c20S proteasome inhibition of β1 subunit (IC50)
T1 construct: purchased Bio-Techne
Experimental: as §1

[3] = system: T. vaginalis Tv20S proteasome β2 subunit; assay: In vitro proteasome assay, Ac-FRSR-amc substrate; assay type: biochemical, Trichomonas vaginalis; conditions: recombinant Tv20S, mean ± SD of three experiments; for IC50: read-out: Tv20S proteasome inhibition of β2 subunit (IC50)
Experimental: as §1

[4] = target: T2, Human c20S proteasome β2 subunit (Homo sapiens, UniProt P49720+Q99436); assay: In vitro proteasome assay, z-VLR-amc substrate; assay type: biochemical
T2 construct: purchased Bio-Techne
Experimental: as §1

[5] = target: T3, Human c20S proteasome β5 subunit (Homo sapiens, UniProt P20618+P28074); assay: In vitro proteasome assay, suc-LLVY-amc substrate; assay type: biochemical; conditions: purified human c20S with PA28α, mean ± SD
T3 construct: purchased Bio-Techne
Experimental: as §1

[6] = target: T. vaginalis Tv20S proteasome β1 subunit (Trichomonas vaginalis, UniProt A2E7Z2); assay: In vitro proteasome assay, Ac-RYFD-amc substrate; assay type: biochemical; conditions: recombinant Tv20S, mean ± SD of three experiments
Experimental: as §1

[7] = system: T. vaginalis strain F1623; assay: 24 h growth and survival assay (ATP luminescence, GI50); assay type: cell-based, Trichomonas vaginalis; conditions: for SI (ratio of GI50 in HeLa cells over GI50 in T. vaginalis): T. vaginalis F1623 vs human HeLa cells
Experimental: The following T. vaginalis strains were used: F1623 ([50]), G3 (ATCC PRA-98), and LA1 ([25]). […] Drug susceptibility assays were performed as described previously ([23]) with several minor modifications. Briefly, 10 mM stocks of the test compounds in DMSO were serially diluted 1:3 using an Echo 650 Acoustic Liquid Handler (Beckman Coulter). Subsequently, trophozoites (5 × 10^3/well) in TYM modified media were added to the wells in 384-well plates, and cultures were incubated for 24 h at 37°C under anaerobic conditions (AnaeroPack-Anaero System; Remel). For testing in mammalian cells, the following cell lines were used: Human cervical cancer cells HeLa (ATCC CCL-2), non-transformed mouse fibroblast cell line 3T3-L1 (ATCC CL-173), normal monkey kidney epithelial cell line Vero (ATCC CCL-81), and human B lymphoma cells Raji (ATCC CCL-86). Test compounds were serially diluted (1:3) and added to mammalian cell cultures grown in 384-well plates, and cultures were incubated for 48 h at 37°C in 5% CO2, 95% air. Growth and viability of T. vaginalis and mammalian cells were determined with an ATP assay by adding the BacTiter-Glo Microbial Cell Viability Assay reagent (Promega) directly to the wells and measuring ATP-dependent luminescence in a microplate reader. […] Experiments were repeated at least three times, and the mean and SEM of the pGI50 values were calculated.

[8] = purified human c20S with PA28α, mean ± SD, read-out: Human c20S proteasome inhibition of β2 subunit (IC50)
[9] = recombinant Tv20S, mean ± SD of three experiments, read-out: Tv20S proteasome inhibition of β5 subunit (IC50)
[10] = read-out: Human c20S proteasome inhibition of β5 subunit (IC50)
[11] = purified human c20S with PA28α, mean ± SD
[12] = relative to parental compound 4

Chain of T. vaginalis Tv20S proteasome β5 subunit (A2DD57 entry or part of it): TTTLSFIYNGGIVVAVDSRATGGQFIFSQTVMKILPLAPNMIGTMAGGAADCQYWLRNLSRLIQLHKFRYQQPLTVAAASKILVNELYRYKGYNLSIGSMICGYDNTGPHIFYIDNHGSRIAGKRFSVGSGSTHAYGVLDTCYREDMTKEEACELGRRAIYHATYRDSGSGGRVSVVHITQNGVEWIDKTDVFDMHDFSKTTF
Chain of T. vaginalis Tv20S proteasome β5 subunit (A2F716 entry or part of it): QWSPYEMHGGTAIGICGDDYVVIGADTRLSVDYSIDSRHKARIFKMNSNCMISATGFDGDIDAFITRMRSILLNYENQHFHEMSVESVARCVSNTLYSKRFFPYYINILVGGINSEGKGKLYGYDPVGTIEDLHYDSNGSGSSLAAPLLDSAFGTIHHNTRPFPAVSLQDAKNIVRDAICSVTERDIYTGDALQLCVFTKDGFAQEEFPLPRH
Chain of T. vaginalis Tv20S proteasome β1 subunit (A2E7Z2 entry or part of it): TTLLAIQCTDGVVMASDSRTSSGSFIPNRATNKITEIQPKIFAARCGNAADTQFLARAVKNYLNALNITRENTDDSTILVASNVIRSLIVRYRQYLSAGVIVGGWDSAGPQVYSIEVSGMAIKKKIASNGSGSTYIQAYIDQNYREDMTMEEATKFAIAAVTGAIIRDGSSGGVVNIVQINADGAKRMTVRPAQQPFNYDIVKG

Compound | Tv20S proteasome inhibition of β2 subunit (IC50) [3] | IC50 [4, 8] [nM] | IC50 [1, 9] [nM] | IC50 [5, 10] [nM] | Tv20S proteasome inhibition of β1 subunit (IC50) [6] | Human c20S proteasome inhibition of β1 subunit (IC50) [2] | SI (ratio of GI50 in HeLa cells over GI50 in T. vaginalis) [7] | other results
C[C@@]12OC(=O)[C@]1([C@@H](O)[C@@H]1C=CCCC1)NC(=O)[C@@H]2CCCl [18 (MZB), marizomib, reference compound] | No inhibition | 46.7 ± 11.2 | – | – | – | – | – | IC50 ([1]; Tv20S proteasome inhibition of β5 subunit (IC50), recombinant Tv20S, mean ± SD of three experiments): 0.88 ± 0.11 nM; IC50 [2]: 66.5 ± 11.7 nM
CCCCCC(=O)N[C@H](C(=O)N[C@@H](CCS(C)(=O)=O)C(=O)N[C@@H](CC(C)C)C(=O)[C@@]1(C)CO1)C(C)C [38 (CPB), carmaphycin B, reference compound] | – | 14.6 ± 0.83 | 1.51 ± 0.69 | 7.92 ± 0.72 | Activation | – | – | β5 SI ratio (c20S/Tv20S) [1]: 5.25; IC50 [2]: 895 ± 510 nM; IC50 [3]: 440 ± 101 nM
CC(C)C[C@H](NC(=O)[C@H](Cc1ccccc1)NC(=O)c1cnccn1)B(O)O [43 (BTZ), bortezomib, reference compound] | – | – | – | – | – | – | – | IC50 ([1]; read-out: Tv20S proteasome inhibition of β5 subunit (IC50)): 21.6 ± 1.69 nM; IC50 [3]: 30.8 ± 19.9 nM
COc1ccc(CC(NC(=O)C(C)NC(=O)CN2CCOCC2)C(=O)NC(Cc2ccc(-c3ccccc3)cc2)C(=O)C2(C)CO2)cc1 (centres unmarked) [compound 3] | No inhibition | – | 12 ± 1.94 | – | Activation | No inhibition | 36.3 | IC50 ([5]; Human c20S proteasome inhibition of β5 subunit (IC50)): 18.1 ± 3.26 nM; IC50 [4]: 271 ± 26.4 nM
COc1ccc(C[C@H](NC(=O)[C@H](C)NC(=O)C2=C(C)c3ccccc3C2)C(=O)N[C@@H](Cc2ccccc2)C(=O)[C@@]2(C)CO2)cc1 [compound 4] | No inhibition | 1690 ± 410 | 8.21 ± 1.16 | 11 ± 1.12 | Activation | – | 21.4 | IC50 [2]: 19700 ± 8580 nM
CCCCC(=O)N[C@@H](Cc1ccc(O)cc1)C(=O)N[C@@H](CCCC)C(=O)N[C@@H](Cc1ccccc1)C(=O)[C@@]1(C)CO1 [compound 5] | No inhibition | 68.2 ± 13 | 2.43 ± 0.39 | 1.06 ± 0.08 | Activation | No inhibition | – | –
COc1ccc(CC(NC(=O)C(C)NC(=O)OCc2ccccc2)C(=O)NC(Cc2ccccc2)C(=O)C2(C)CO2)cc1 (centres unmarked) [compound 11] | No inhibition | – | 4.29 ± 2.23 | 45.3 ± 4.67 | Activation | No inhibition | 51.3 | Human c20S proteasome inhibition of β2 subunit (IC50) [4, 11]: No inhibition
CCCCCC(=O)N[C@@H](CO)C(=O)N[C@@H](CCCC)C(=O)N[C@@H](Cc1ccccc1)C(=O)[C@@]1(C)CO1 [compound 19] | No inhibition | 2160 | 21 ± 2.47 | 8.16 ± 1.8 | Activation | No inhibition | – | –
CC(C)CC(NC(=O)C(CC12CC3CC(CC(C3)C1)C2)NC(=O)c1cnccn1)B(O)O (centres unmarked) [compound 32] | – | – | – | – | – | – | 1.02 | –
COc1ccc(C[C@H](NC(=O)[C@H](C)NC(=O)CN2CCOCC2)C(=O)N[C@@H](Cc2ccc3ccccc3c2)C(=O)[C@@]2(C)CO2)cc1 [compound 35] | – | – | – | – | – | – | 3.47 | –
CCCC[C@H](NC(=O)[C@H](CC(=O)N1CCCC1)NC(=O)[C@H](Cc1ccc(OC)cc1)N1CCCC1=O)C(=O)N[C@@H](Cc1ccc(F)cc1F)C(=O)[C@@]1(C)CO1 [compound 45] | No inhibition | – | 82.6 ± 32.1 | 1010 | Activation | No inhibition | – | Human c20S proteasome inhibition of β2 subunit (IC50) [4, 11]: No inhibition
CSc1ccc(CC(=O)NC(C(=O)NC(Cc2c(F)c(F)c(F)c(F)c2F)C(=O)N[C@@H](CC(C)C)C(=O)[C@@]2(C)CO2)C(C)C)cc1 (some centres unmarked) [compound 50] | No inhibition | 64.7 ± 8.19 | 9.25 ± 1.81 | 13.8 ± 4.21 | Activation | No inhibition | – | –
COc1ccc(C[C@H](NC(=O)[C@H](C)NC(=O)C2=C(C)c3ccccc3C2)C(=O)N[C@@H](Cc2ccc(-c3ccccc3)cc2)C(=O)[C@]2(C)CO2)cc1 [compound 60] | – | – | – | – | – | – | 8.13 | –
COc1ccc(C[C@H](NC(=O)[C@H](C)NC(=O)C2=C(C)c3ccccc3C2)C(=O)N[C@@H](Cc2ccccc2)C(=O)[C@@H]2CO2)cc1 [compound 66] | – | – | – | – | – | – | 2.69 | loss in selectivity [7, 12]: ~ 10 fold; reduction in activity against T. vaginalis [7, 12]: ~ 50 fold
CCCCCC(=O)N[C@H](CC(=O)N[C@@H](CCCC)C(=O)N[C@@H](Cc1ccc(F)cc1F)C(=O)[C@@]1(C)CO1)CC(=O)OC(C)(C)C [compound 75] | No inhibition | – | 172 ± 91.7 | – | Activation | No inhibition | – | Human c20S proteasome inhibition of β5 subunit (IC50) [5]: no measurable c20S β5 inhibitory activity; also recorded: No inhibition; Human c20S proteasome inhibition of β2 subunit (IC50) [4, 11]: No inhibition
CCCCC(=O)N[C@H](Cc1c[nH]c2ccccc12)C(=O)N[C@@H](Cc1c[nH]c2ccccc12)C(=O)N[C@@H](Cc1ccccc1)C(=O)[C@]1(C)CO1 [compound 91] | No inhibition | – | 2.52 ± 1.05 | 8.81 ± 0.69 | Activation | No inhibition | – | –
CCCCCC(=O)N[C@H](CCC(=O)OC(C)(C)C)CC(=O)N[C@@H](CCCC)C(=O)N[C@@H](Cc1ccccc1)C(=O)[C@@]1(C)CO1 [compound 94] | – | – | – | – | – | – | 3.16 | growth inhibitory activity against T. vaginalis (in words) ([7]; F1623): lacked activity and selectivity
COc1ccc(C[C@H](NC(=O)[C@H](C)NC(=O)CN2CCOCC2)C(=O)N[C@@H](CC2CCCCC2)C(=O)[C@@]2(C)CO2)cc1 [compound 156] | – | – | – | – | – | – | 0.83 | –
COc1ccc(C[C@H](NC(=O)[C@H](C)NC(=O)CN2CCOCC2)C(=O)N[C@@H](CC2CCC(C3CCCCC3)CC2)C(=O)[C@@]2(C)CO2)cc1 (some centres unmarked) [compound 197] | – | – | – | – | – | – | < 0.71 | –
COc1ccc(C[C@H](NC(=O)[C@H](C)NC(=O)CN2CCOCC2)C(=O)N[C@@H](CC2CCC(c3ccccc3)CC2)C(=O)[C@@]2(C)CO2)cc1 (some centres unmarked) [compound 201] | – | – | – | – | – | – | < 0.72 | –
